Values after ≈ are worked out from the molar mass of the structure shown. Where two headings read alike, the source gives them in different places.
Legend:
[1] = Solubility in water of compound having Formula III; assay type: physicochemical; settings: pH 7, water, pH of about 7
[2] = Example 2: ocular tissue pharmacokinetics after topical dose, decreasing dose volume at same total amount of drug; assay type: in vivo, New Zealand Composite pigmented rabbits; settings: for DNAUC / AUC(0-t) / Cmax / Tmax: topical ocular; for exposure (absolute Cmax and AUC): constant 10 μg dose, varying volume/concentration
Procedure: This study was carried out using a non-crossover design involving a total of 84 New Zealand Composite pigmented rabbits arbitrarily divided into 3 groups of 28 rabbits each. Three compositions were prepared as aqueous suspensions substantially as disclosed above comprising 1, 0.33, and 0.1 mg/mL BOL-303242-X, respectively. Each composition also contained 100 mg/mL PEG 3350 and 10 mg/mL Tween® 80. The compositions were shipped to the test site as a ready-to-use suspension.
The test compositions were administered so as to achieve 10-μg topical dosed drug amount in each eye of all the study animals. The concentration of the composition and the instillation volume were varied between the three study groups to keep the dosed drug amount constant. Animals in Group 1 received 10 μL/eye of the 1.0 mg/mL composition; animals comprising Groups 2 and 3 received 30 μL/eye of the 0.33 mg/mL composition and 100 μL/eye of the 0.1 mg/mL composition, respectively.
At predetermined time intervals after dosing, rabbits (four per collection time) were euthanized after anesthetization and the eyes enucleated and dissected. Tear, aqueous humor, conjunctiva, cornea, and iris/ciliary body samples were collected from both eyes of each animal and stored frozen until being shipped on dry ice to the analytical laboratory. Samples were collected at 0.083, 0.25, 0.5, 1, 2, 4, and 6 hours after dosing. BOL-303242-X concentrations in the above tissues and matrices were determined by LC/MS/MS. For the purpose of calculating mean concentrations, a value of ½ the LLQ was assigned to all samples with concentrations below the LLQ (BLQ). In addition, any sample with a measured concentration that was more than 10-fold higher than the median concentration in the respective sample pool was considered an outlier, and was not included in any calculations. Similarly, concentrations that were 10-fold lower than the median value and below the LLQ were also considered to be outliers. The number of study samples that were determined to be outliers using the above criteria for each tissue/matrix in this study was: tears=14/144; conjunctiva=3/144; cornea=1/144; aqueous humor 2/144 and iris=4/144 samples.
Pharmacokinetic analysis of the composite concentration-versus-time data was performed using non-compartmental methods (WinNonlin version 5.2). Due to the destructive nature of the sampling regimen employed in this study, average composite data were used in the pharmacokinetic analysis.

[3] = Conjunctiva, 10 μL/eye of 1 mg/mL (10 μg)
[4] = Conjunctiva, 30 μL/eye of 0.33 mg/mL (10 μg)
[5] = Conjunctiva, 100 μL/eye of 0.1 mg/mL (10 μg)
[6] = Cornea, 10 μL/eye of 1 mg/mL (10 μg)
[7] = Cornea, 30 μL/eye of 0.33 mg/mL (10 μg)
[8] = Cornea, 100 μL/eye of 0.1 mg/mL (10 μg)
[9] = Iris/Ciliary Body, 30 μL/eye of 0.33 mg/mL (10 μg)
[10] = Iris/Ciliary Body, 100 μL/eye of 0.1 mg/mL (10 μg)
[11] = New Zealand Composite pigmented, rabbit, aqueous humor, topical or ocular, 10 ug, 10 μL/eye of 1 mg/mL (10 μg)
[12] = New Zealand Composite pigmented, rabbit, aqueous humor, topical or ocular, 10 ug, 30 μL/eye of 0.33 mg/mL (10 μg)
[13] = New Zealand Composite pigmented, rabbit, aqueous humor, topical or ocular, 10 ug, 100 μL/eye of 0.1 mg/mL (10 μg)
[14] = New Zealand Composite pigmented, rabbit, conjunctiva, topical or ocular, 10 ug, 10 μL/eye of 1 mg/mL (10 μg)
[15] = New Zealand Composite pigmented, rabbit, conjunctiva, topical or ocular, 10 ug, 30 μL/eye of 0.33 mg/mL (10 μg)
[16] = New Zealand Composite pigmented, rabbit, conjunctiva, topical or ocular, 10 ug, 100 μL/eye of 0.1 mg/mL (10 μg)
[17] = New Zealand Composite pigmented, rabbit, cornea, topical or ocular, 10 ug, 10 μL/eye of 1 mg/mL (10 μg)
[18] = New Zealand Composite pigmented, rabbit, cornea, topical or ocular, 10 ug, 30 μL/eye of 0.33 mg/mL (10 μg)
[19] = New Zealand Composite pigmented, rabbit, cornea, topical or ocular, 10 ug, 100 μL/eye of 0.1 mg/mL (10 μg)
[20] = New Zealand Composite pigmented, rabbit, iris/ciliary body, topical or ocular, 10 ug, 30 μL/eye of 0.33 mg/mL (10 μg)
[21] = New Zealand Composite pigmented, rabbit, iris/ciliary body, topical or ocular, 10 ug, 100 μL/eye of 0.1 mg/mL (10 μg)
[22] = New Zealand Composite pigmented, rabbit, tears, topical or ocular, 10 ug, 10 μL/eye of 1 mg/mL (10 μg)
[23] = New Zealand Composite pigmented, rabbit, tears, topical or ocular, 10 ug, 30 μL/eye of 0.33 mg/mL (10 μg)
[24] = New Zealand Composite pigmented, rabbit, tears, topical or ocular, 10 ug, 100 μL/eye of 0.1 mg/mL (10 μg)
[25] = Tears, 10 μL/eye of 1 mg/mL (10 μg)
[26] = Tears, 30 μL/eye of 0.33 mg/mL (10 μg)
[27] = Tears, 100 μL/eye of 0.1 mg/mL (10 μg)

In the case of `Cc1ccc2c(NCC(O)(CC(C)(C)c3cc(F)cc4c3OCC4)C(F)(F)F)cccc2n1` (stereo not shown) [BOL-303242-X], the solubility [1] is reported as roughly 0.2 µg/mL (≈ 0.432 µM), the DNAUC ([2]; Aqueous Humor, 10 μL/eye of 1 mg/mL (10 μg)) is reported as 0.800 ng*hr/g ÷ μg dose and the DNAUC ([2]; Aqueous Humor, 30 μL/eye of 0.33 mg/mL (10 μg)) is reported as 0.300 ng*hr/g ÷ μg dose. For the same compound, the DNAUC ([2]; Aqueous Humor, 100 μL/eye of 0.1 mg/mL (10 μg)) was 0.700 ng*hr/g ÷ μg dose, the “AUC(0-t)” value [2, 3] was 0.742 µg·h/g and the DNAUC [2, 3] was 74.2 ng*hr/g ÷ μg dose. For the same compound, the “AUC(0-t)” value [2, 4] was 0.575 µg·h/g, the DNAUC [2, 4] was 57.5 ng*hr/g ÷ μg dose and the “AUC(0-t)” value [2, 5] was 0.212 µg·h/g. For the same compound, the DNAUC [2, 5] was 21.2 ng*hr/g ÷ μg dose, the “AUC(0-t)” value [2, 6] was 1.01 µg·h/g and the DNAUC [2, 6] was 101 ng*hr/g ÷ μg dose. For the same compound, the “AUC(0-t)” value [2, 7] was 1.02 µg·h/g, the DNAUC [2, 7] was 102 ng*hr/g ÷ μg dose and the “AUC(0-t)” value [2, 8] was 0.745 µg·h/g. The DNAUC [2, 8] was 74.5 ng*hr/g ÷ μg dose, the DNAUC ([2]; Iris/Ciliary Body, 10 μL/eye of 1 mg/mL (10 μg)) was 27.3 ng*hr/g ÷ μg dose and the “AUC(0-t)” value ([2]; Iris/Ciliary Body, 10 μL/eye of 1 mg/mL (10 μg), heavily influenced by 2 animals at 2 hour) was 0.273 µg·h/g. The “AUC(0-t)” value [2, 9] was 0.0206 µg·h/g, the DNAUC [2, 9] was 2.06 ng*hr/g ÷ μg dose and the “AUC(0-t)” value [2, 10] was 0.0186 µg·h/g. The DNAUC [2, 10] was 1.86 ng*hr/g ÷ μg dose, the AUC(0-t) ([2]; New Zealand Composite pigmented, rabbit, aqueous humor, topical or ocular, 10 ug, Aqueous Humor, 10 μL/eye of 1 mg/mL (10 μg), read-out: AUC(0-t)) was 8 ng·h/mL and the AUC(0-t) ([2]; New Zealand Composite pigmented, rabbit, aqueous humor, topical or ocular, 10 ug, Aqueous Humor, 30 μL/eye of 0.33 mg/mL (10 μg), read-out: AUC(0-t)) was 3 ng·h/mL. It also gave an AUC(0-t) ([2]; New Zealand Composite pigmented, rabbit, aqueous humor, topical or ocular, 10 ug, Aqueous Humor, 100 μL/eye of 0.1 mg/mL (10 μg), read-out: AUC(0-t)) of 7 ng·h/mL, a Cmax [2, 11] of 0.17 ng/mL and a Tmax [2, 11] of 120 min. It also gave a Cmax [2, 12] of 0.188 ng/mL, a Tmax [2, 12] of 120 min and a Cmax [2, 13] of 0.286 ng/mL. It also gave a Tmax [2, 13] of 120 min, a Cmax [2, 14] of 399 ± 100 ng/g and a Tmax [2, 14] of 4.98 min. For the same compound, the Cmax [2, 15] was 450 ± 269 ng/g, the Tmax [2, 15] was 15 min and the Cmax [2, 16] was 168 ± 101 ng/g. It also gave a Tmax [2, 16] of 15 min, a Cmax [2, 17] of 527 ± 213 ng/g and a Tmax [2, 17] of 30 min. It also gave a Cmax [2, 18] of 592 ± 297 ng/g, a Tmax [2, 18] of 4.98 min and a Cmax [2, 19] of 452 ± 129 ng/g. It also gave a Tmax [2, 19] of 15 min, a Tmax ([2]; New Zealand Composite pigmented, rabbit, iris/ciliary body, topical or ocular, 10 ug, 10 μL/eye of 1 mg/mL (10 μg)) of 120 min and a Cmax ([2]; New Zealand Composite pigmented, rabbit, iris/ciliary body, topical or ocular, 10 ug, 10 μL/eye of 1 mg/mL (10 μg), heavily influenced by 2 animals at 2 hour) of 262 ng/g. The Cmax [2, 20] was 41.9 ± 37.8 ng/g, the Tmax [2, 20] was 4.98 min and the Cmax [2, 21] was 5.92 ± 7.26 ng/g. The Tmax [2, 21] was 60 min, the Cmax [2, 22] was 247000 ng/g and the Tmax [2, 22] was 15 min. The Cmax [2, 23] was 32000 ng/g, the Tmax [2, 23] was 4.98 min and the Cmax [2, 24] was 7170 ng/g. For the same compound, the Tmax [2, 24] was 15 min, the “AUC(0-t)” value [2, 25] was 60.2 µg·h/g and the DNAUC [2, 25] was 6020 ng*hr/g ÷ μg dose. The “AUC(0-t)” value [2, 26] was 18.2 µg·h/g, the DNAUC [2, 26] was 1820 ng*hr/g ÷ μg dose and the “AUC(0-t)” value [2, 27] was 7.74 µg·h/g. For the same compound, the DNAUC [2, 27] was 774 ng*hr/g ÷ μg dose, the “exposure (absolute Cmax and AUC)” value ([2]; cornea, iris/ciliary body and aqueous humor) was “remained relatively constant” and the ocular bioavailability ([2]; dose volume decreased while drug concentration in the formulation increased proportionally) was “increases”. The “exposure (absolute Cmax and AUC)” value ([2]; tears) was “increases as the concentration of the drug in the dose volume increases”.

Reference: patent US20130177609A1, “Compositions and Methods for Increasing Bioavailability of Topical Ophthalmic Drugs” (priority 2008, published 2013)
